Data published in PMC3395435 (Biopolymers, 2012).

Experiments:
[1] = format: physicochemical; details: pH 7.5
rat vas deferens = details: cited from earlier work
Swiss Webster mice [2] = details: mouse, in vivo; cited from earlier work
Swiss Webster mice [3] = details: mouse, in vivo

ω-conotoxin GVIA
natively folded peptide retained at the steady state [1]: about 60% | Biological activity (twitch responses) (rat vas deferens): 10 nM | duration of shaking syndrome, previous work (Swiss Webster mice [2]): maintained for a long time in a dose-dependent manner | shaking syndrome, previous work (Swiss Webster mice [2]): induce shaking syndrome in mice | duration of shaking syndrome (Swiss Webster mice [3]): maintained for a long time | shaking syndrome (persistent body tremor) (Swiss Webster mice [3]): exhibited the shaking syndrome
